Test results as given in US20020137929A1, “1 - (3-heterocyclylphenyl) isothiourea, -isourea, -guanidine and -amidine herbicidal agents” (Intellectual Property Department, BASF Aktiengesellschaft, priority 1998, published 2002).

Assays:
SETVI (Foxtail, Green) = assay: Preemergence herbicidal evaluation; assay type: in vivo, Setaria viridis; settings: preemergence, rated 4-5 weeks after treatment, 0-9 scale
Procedure, shortened: (§1)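 Each species is sown separately in potting soil over roughly an inch of soil before any emergence. The soil surface then receives an aqueous acetone spray delivering about 0.0156 to 0.500 kg/ha of compound. After four to five weeks, injury is scored from 0 to 9 relative to a control.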

[1] = tested on: SAGPY (Arrowhead (Pygmaea)); assay: Postemergence weed control under flooded paddy conditions; assay type: in vivo, Sagittaria pygmaea; settings: postemergence weeds, rated 3 to 4 weeks after treatment
Procedure, shortened: (§2)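 Herbicidal effect is judged by eye on a 0–9 scale versus control, 3–4 weeks after dosing. Dosing is into flood water kept 1.5–3 cm over the soil, at about 0.0313–0.500 kg/ha in aqueous/acetone 50/50 v/v, on 3–5 cm weeds and 1.5–2.5-leaf rice seedlings.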

[2] = tested on: TRZAWR (Wheat, Winter, cv Riband); assay: Postemergence herbicidal evaluation; assay type: in vivo, Triticum aestivum; settings: postemergence
Procedure, shortened: (§3)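 Scores (0–9) reflect plant stand, vigor, malformation, size, chlorosis and general appearance relative to control, read 4 to 5 weeks after treatment and averaged where tests were repeated. Application: about 0.0156–0.500 kg/ha sprayed at 40 psi onto two-week seedlings.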

[3] = tested on: ECHORC (Watergrass (Calif.)); assay: Preemergence weed control under flooded paddy conditions; assay type: in vivo, Echinochloa oryzoides; settings: rated 3-4 weeks after treatment
Procedure, shortened: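 First, seeds or propagules go into the top 0.5 cm of silt loam; next, water is held 1.5 to 3 cm over the soil; then compound (50/50 acetone/water) is pipetted into it at about 0.0313 to 0.500 kg/ha; finally plants are rated visually 0-9 after three to four weeks.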

[4] = tested on: ECHORC (Watergrass (Calif.)); assay: Postemergence weed control under flooded paddy conditions; assay type: in vivo, Echinochloa oryzoides; settings: postemergence weeds, rated 3 to 4 weeks after treatment
Procedure, shortened: as §2

CYPSE (Flatsedge) = assay: Preemergence weed control under flooded paddy conditions; assay type: in vivo, Cyperus serotinus; settings: rated 3-4 weeks after treatment
Procedure, shortened: (§4)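 Silt loam, seeds in top 0.5 cm; flood held 1.5-3 cm; test cpd as acetone/water 50/50 into flood water, ~0.0313-0.500 kg/ha a.i.; greenhouse 3-4 wk; visual 0-9 score vs control.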

MOOVA (Monochoria) = assay: as above; assay type: in vivo, Monochoria vaginalis; settings: rated 3-4 weeks after treatment
Procedure, shortened: as §4

AMBEL (Ragweed, Common) = assay: Postemergence herbicidal evaluation; assay type: in vivo, Ambrosia artemisifolia; settings: postemergence
Procedure, shortened: as §3

CASOB (Sicklepod) = assay: Postemergence herbicidal evaluation; assay type: in vivo, Cassia obtusifolia; settings: postemergence
Procedure, shortened: as §3

[5] = tested on: GLXMAW (Soybean, Williams); assay: Postemergence herbicidal evaluation; assay type: in vivo, Glycine max, (L.) Merr. cv Williams; settings: postemergence
Procedure, shortened: as §3

GALAP (Galium) [6] = assay: Postemergence herbicidal evaluation; assay type: in vivo, Galium aparine; settings: postemergence
Procedure, shortened: as §3

ORYSAT (Rice, Tebonnet) = assay: Preemergence herbicidal evaluation; assay type: in vivo, Oryza sativa, (L.) Tebonnet; settings: preemergence, rated 4-5 weeks after treatment, 0-9 scale
Procedure, shortened: as §1

GALAP (Galium) [7] = assay: Preemergence herbicidal evaluation; assay type: in vivo, Galium aparine; settings: preemergence, rated 4-5 weeks after treatment, 0-9 scale
Procedure, shortened: as §1

[8] = tested on: SAGPY (Arrowhead (Pygmaea)); assay: Preemergence weed control under flooded paddy conditions; assay type: in vivo, Sagittaria pygmaea; settings: rated 3-4 weeks after treatment
Procedure, shortened: as §4

## C=CCN1C(=O)C(CC(=O)OCCF)SC1=Nc1cc(-n2c(=O)cc(C(F)(F)F)n(C)c2=O)c(F)cc1Cl (centres unmarked) [Compound 86, 2-Fluoroethyl 3-allyl-2-{{2-chloro-5-[3,6-dihydro-3-methyl-2,6-dioxo-4-(trifluoromethyl)-1(2H)-pyrimidinyl]-4-fluorophenyl}imino}-4-oxo-5-thiazolidineacetate]
SETVI (Foxtail, Green); 0.0156 kg/ha
  SETVI rating: 0.0
SETVI (Foxtail, Green); 0.0313 kg/ha
  SETVI rating: 0.0
SETVI (Foxtail, Green); 0.0625 kg/ha
  SETVI rating: 4.0
SETVI (Foxtail, Green); 0.1250 kg/ha
  SETVI rating: 8.0
SETVI (Foxtail, Green); 0.2500 kg/ha
  SETVI rating: 9.0
SETVI (Foxtail, Green); 0.5000 kg/ha
  SETVI rating: 9.0
[1]; Rate 0.0313 kg/ha
  Herbicidal rating SAGPY: 5.0
[1]; Rate 0.0625 kg/ha
  Herbicidal rating SAGPY: 9.0
[1]; Rate 0.1250 kg/ha
  Herbicidal rating SAGPY: 9.0
[1]; Rate 0.2500 kg/ha
  Herbicidal rating SAGPY: 9.0
[2]; rate 0.0156 kg/ha
  TRZAWR herbicidal rating: 6.0
[2]; rate 0.0313 kg/ha
  TRZAWR herbicidal rating: 7.0
[2]; rate 0.0625 kg/ha
  TRZAWR herbicidal rating: 7.5
[2]; rate 0.1250 kg/ha
  TRZAWR herbicidal rating: 8.5
[3]; 0.0313 kg/ha
  ECHORC herbicidal effect rating: 5.0
[3]; 0.0625 kg/ha
  ECHORC herbicidal effect rating: 6.0
[3]; 0.1250 kg/ha
  ECHORC herbicidal effect rating: 9.0
[3]; 0.2500 kg/ha
  ECHORC herbicidal effect rating: 9.0
[4]; Rate 0.0313 kg/ha
  Herbicidal rating ECHORC: 5.0
[4]; Rate 0.0625 kg/ha
  Herbicidal rating ECHORC: 6.0
[4]; Rate 0.1250 kg/ha
  Herbicidal rating ECHORC: 9.0
[4]; Rate 0.2500 kg/ha
  Herbicidal rating ECHORC: 9.0
CYPSE (Flatsedge); 0.0313 kg/ha
  CYPSE herbicidal effect rating: 0.0
CYPSE (Flatsedge); 0.0625 kg/ha
  CYPSE herbicidal effect rating: 0.0
CYPSE (Flatsedge); 0.1250 kg/ha
  CYPSE herbicidal effect rating: 3.0
CYPSE (Flatsedge); 0.2500 kg/ha
  CYPSE herbicidal effect rating: 9.0
MOOVA (Monochoria); 0.0313 kg/ha
  MOOVA herbicidal effect rating: 9.0
MOOVA (Monochoria); 0.0625 kg/ha
  MOOVA herbicidal effect rating: 9.0
MOOVA (Monochoria); 0.1250 kg/ha
  MOOVA herbicidal effect rating: 9.0
MOOVA (Monochoria); 0.2500 kg/ha
  MOOVA herbicidal effect rating: 9.0
AMBEL (Ragweed, Common); rate 0.0156 kg/ha
  AMBEL herbicidal rating: 9.0
AMBEL (Ragweed, Common); rate 0.0313 kg/ha
  AMBEL herbicidal rating: 9.0
AMBEL (Ragweed, Common); rate 0.0625 kg/ha
  AMBEL herbicidal rating: 9.0
AMBEL (Ragweed, Common); rate 0.1250 kg/ha
  AMBEL herbicidal rating: 9.0
CASOB (Sicklepod); rate 0.0156 kg/ha
  CASOB herbicidal rating: 1.0
CASOB (Sicklepod); rate 0.0313 kg/ha
  CASOB herbicidal rating: 2.0
CASOB (Sicklepod); rate 0.0625 kg/ha
  CASOB herbicidal rating: 7.0
CASOB (Sicklepod); rate 0.1250 kg/ha
  CASOB herbicidal rating: 9.0
[5]; rate 0.0156 kg/ha
  GLXMAW herbicidal rating: 8.5
[5]; rate 0.0313 kg/ha
  GLXMAW herbicidal rating: 9.0
[5]; rate 0.0625 kg/ha
  GLXMAW herbicidal rating: 9.0
[5]; rate 0.1250 kg/ha
  GLXMAW herbicidal rating: 9.0
GALAP (Galium) [6]; rate 0.0156 kg/ha
  GALAP herbicidal rating: 2.0
GALAP (Galium) [6]; rate 0.0313 kg/ha
  GALAP herbicidal rating: 5.0
GALAP (Galium) [6]; rate 0.0625 kg/ha
  GALAP herbicidal rating: 9.0
GALAP (Galium) [6]; rate 0.1250 kg/ha
  GALAP herbicidal rating: 9.0
ORYSAT (Rice, Tebonnet); 0.0156 kg/ha
  ORYSAT rating: 0.0
ORYSAT (Rice, Tebonnet); 0.0313 kg/ha
  ORYSAT rating: 0.0
ORYSAT (Rice, Tebonnet); 0.0625 kg/ha
  ORYSAT rating: 0.0
ORYSAT (Rice, Tebonnet); 0.1250 kg/ha
  ORYSAT rating: 0.0
ORYSAT (Rice, Tebonnet); 0.2500 kg/ha
  ORYSAT rating: 2.0
ORYSAT (Rice, Tebonnet); 0.5000 kg/ha
  ORYSAT rating: 6.0
GALAP (Galium) [7]; 0.0156 kg/ha
  GALAP rating: 0.0
GALAP (Galium) [7]; 0.0313 kg/ha
  GALAP rating: 0.0
GALAP (Galium) [7]; 0.0625 kg/ha
  GALAP rating: 0.0
GALAP (Galium) [7]; 0.1250 kg/ha
  GALAP rating: 0.0
GALAP (Galium) [7]; 0.2500 kg/ha
  GALAP rating: 9.0
GALAP (Galium) [7]; 0.5000 kg/ha
  GALAP rating: 9.0
[8]; 0.0313 kg/ha
  SAGPY herbicidal effect rating: 5.0
[8]; 0.0625 kg/ha
  SAGPY herbicidal effect rating: 9.0
[8]; 0.1250 kg/ha
  SAGPY herbicidal effect rating: 9.0
[8]; 0.2500 kg/ha
  SAGPY herbicidal effect rating: 9.0
